Experimental data: US9790537B2, “Quinone-masked probes as labeling reagents for cell uptake measurements” (PROMEGA CORPORATION, priority 2014, dated 2017)

Columns and labels:
OATP1B3 = OATP1B3 (Homo sapiens, UniProt Q9NPD5); test: Cell-based uptake transporter assay, TransportoCells OATP1B3, luminescence; conditions: various concentrations, 30 min 37° C.; FIG. 13
Procedure: (§1) Stock solutions of each compound were prepared as 10 mM in methanol. Corning TransportoCells OATP1B1*1a, OATP1B3, and Control Cells were used as cell model for cell-based uptake transporter assay. Cells were cultured according to manufacturer's recommendations. Briefly, cells were thawed from liquid nitrogen storage and cultured in Dulbecco's Modified Eagle's medium supplemented with fetal bovine serum (FBS), MEM non-essential amino acid, and sodium butyrate. Cells were then plated in Corning 96-well, poly-D-Lysine white/clear plate at 100,000 cells/well in 100 μl medium and incubated for 24 hours at 37° C. with 5% CO2.
(§2) The uptake transporter assay was carried out by adding 100 μl of Hank's balanced salt solution containing 10 μM of one of the compounds to all the cells and incubated at 37° C. for 30 minutes. […] After a 20 minute incubation at room temperature (20°-25° C.), luminescence was detected on a GloMax® luminometer. […]
(§3) The uptake transporter assay was carried out by adding 100 μl of Hank's balanced salt solution containing various concentrations (See FIG. 13) of PBI-5651 to all the cells and incubated at 37° C. for 30 minutes. […] After a 20 minute incubation at room temperature (20°-25° C.), luminescence was detected on a GloMax® luminometer.

OATP1B1*1a = OATP1B1*1a (Homo sapiens, UniProt Q9Y6L6); test: Cell-based uptake transporter assay, TransportoCells OATP1B1*1a, luminescence; conditions: various concentrations, 30 min 37° C.; FIG. 13
Procedure: as §1, §2, §3

Chain of OATP1B3 (Q9NPD5 whole entry): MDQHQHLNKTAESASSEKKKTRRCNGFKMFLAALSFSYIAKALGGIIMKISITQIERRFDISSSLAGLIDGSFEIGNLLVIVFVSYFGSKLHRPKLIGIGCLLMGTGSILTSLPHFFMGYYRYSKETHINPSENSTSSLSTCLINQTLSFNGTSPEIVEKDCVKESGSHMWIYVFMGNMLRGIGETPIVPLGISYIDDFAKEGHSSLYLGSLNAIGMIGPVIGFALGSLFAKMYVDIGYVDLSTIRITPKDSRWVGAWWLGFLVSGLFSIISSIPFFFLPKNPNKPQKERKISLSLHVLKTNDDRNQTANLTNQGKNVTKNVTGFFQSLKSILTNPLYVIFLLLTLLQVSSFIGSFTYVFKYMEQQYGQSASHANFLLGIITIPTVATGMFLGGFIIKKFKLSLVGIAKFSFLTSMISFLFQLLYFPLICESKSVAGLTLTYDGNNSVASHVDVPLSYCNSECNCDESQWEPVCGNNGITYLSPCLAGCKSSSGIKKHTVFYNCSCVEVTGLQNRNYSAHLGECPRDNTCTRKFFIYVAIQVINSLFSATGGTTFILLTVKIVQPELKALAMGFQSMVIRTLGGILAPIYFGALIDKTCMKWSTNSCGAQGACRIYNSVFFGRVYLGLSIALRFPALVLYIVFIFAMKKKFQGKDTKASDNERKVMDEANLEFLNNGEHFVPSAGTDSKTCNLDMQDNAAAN

## CC1=C(C)C(=O)C(C(C)(C)CC(=O)N(C)CCN(CCOCCOCCC(=O)NCCCCC(NC(=O)CC[C@@H](C)[C@H]2CC[C@H]3[C@@H]4[C@@H](O)C[C@@H]5C[C@H](O)CC[C@]5(C)[C@H]4CC[C@]23C)C(=O)O)C(=O)Oc2ccc3nc(C4=NC(C(=O)O)CS4)sc3c2)=C(C)C1=O (stereo partly drawn) [PBI-5651, 2-(6-((((20R)-15-carboxy-20-((3R,5S,7S,8R,9S,10S,13R,14S,17R)-3,7-dihydroxy-10,13-dimethylhexadecahydro-1H-cyclopenta[a]phenanthren-17-yl)-9,17-dioxo-3,6-dioxa-10,16-diazahenicosyl)(2-(N,3-dimethyl-3-(2,4,5-trimethyl-3,6-dioxocyclohexa-1,4-dien-1-yl)butanamido)ethyl)carbamoyl)oxy)benzo[d]thiazol-2-yl)-4,5-dihydrothiazole-4-carboxylic acid]
OATP1B3
  response of luminescence (RLU) to compound concentration: dynamic response of luminescence
OATP1B1*1a
  response of luminescence (RLU) to compound concentration: dynamic response of luminescence
